Results: ChEMBL document CHEMBL3585246, “Design, synthesis and evaluation of novel 2-butyl-4-chloroimidazole derived peptidomimetics as Angiotensin Converting Enzyme (ACE) inhibitors” (Bioorg Med Chem, 2015)

Tests used:
[1] = target: T1, Angiotensin-converting enzyme (Oryctolagus cuniculus) (UniProt P12822); experiment: Inhibition of rabbit lung ACE assessed as hippuryl-histidyl-leucine hydrolysis at 1 uM after 30 mins by colorimetric method
T1 sequence (whole entry): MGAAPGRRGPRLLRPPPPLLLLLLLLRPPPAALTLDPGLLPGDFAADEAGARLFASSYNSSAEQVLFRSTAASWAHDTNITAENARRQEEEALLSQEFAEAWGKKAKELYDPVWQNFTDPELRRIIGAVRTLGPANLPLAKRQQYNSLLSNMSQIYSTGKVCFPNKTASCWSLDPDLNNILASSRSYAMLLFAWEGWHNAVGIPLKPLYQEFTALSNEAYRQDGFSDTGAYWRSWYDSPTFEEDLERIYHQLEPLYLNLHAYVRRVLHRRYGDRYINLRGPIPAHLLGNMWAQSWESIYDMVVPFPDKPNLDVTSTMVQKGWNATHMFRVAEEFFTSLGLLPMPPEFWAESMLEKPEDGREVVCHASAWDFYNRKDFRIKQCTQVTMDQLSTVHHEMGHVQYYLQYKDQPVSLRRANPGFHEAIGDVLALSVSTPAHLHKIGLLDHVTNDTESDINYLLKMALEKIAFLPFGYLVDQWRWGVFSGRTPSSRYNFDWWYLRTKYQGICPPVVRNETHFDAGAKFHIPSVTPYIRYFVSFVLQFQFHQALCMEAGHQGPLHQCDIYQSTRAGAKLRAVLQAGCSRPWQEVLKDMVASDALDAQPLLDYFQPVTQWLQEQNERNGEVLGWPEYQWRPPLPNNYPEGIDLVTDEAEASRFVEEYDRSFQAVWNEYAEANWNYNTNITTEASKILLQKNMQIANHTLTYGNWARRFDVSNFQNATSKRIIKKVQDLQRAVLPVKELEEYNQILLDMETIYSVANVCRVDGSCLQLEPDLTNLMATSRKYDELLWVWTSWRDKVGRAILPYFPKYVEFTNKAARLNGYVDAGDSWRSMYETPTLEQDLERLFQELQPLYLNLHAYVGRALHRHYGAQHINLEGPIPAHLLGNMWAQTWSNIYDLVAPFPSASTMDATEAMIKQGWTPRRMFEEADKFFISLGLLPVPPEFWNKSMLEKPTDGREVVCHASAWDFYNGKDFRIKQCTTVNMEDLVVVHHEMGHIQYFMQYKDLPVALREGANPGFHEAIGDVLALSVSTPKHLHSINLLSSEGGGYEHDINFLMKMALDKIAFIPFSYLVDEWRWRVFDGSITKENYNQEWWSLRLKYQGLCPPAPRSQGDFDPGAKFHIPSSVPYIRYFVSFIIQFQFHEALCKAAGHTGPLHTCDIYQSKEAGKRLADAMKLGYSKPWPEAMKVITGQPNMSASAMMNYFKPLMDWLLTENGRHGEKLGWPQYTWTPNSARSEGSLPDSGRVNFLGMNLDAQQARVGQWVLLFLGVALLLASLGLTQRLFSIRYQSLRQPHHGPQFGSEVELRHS

ACE (rabbit lung) [2] = experiment: Ratio of IC50 for HEK cells to IC50 for rabbit lung ACE; format: cell-based, HEK293; settings: read-out: Ratio IC50
[3] = target: T2, Angiotensin-converting enzyme (Oryctolagus cuniculus, UniProt P12822); experiment: Inhibition of rabbit lung ACE assessed as hippuryl-histidyl-leucine hydrolysis after 30 mins by colorimetric method
T2 sequence (P12822 whole entry): T1 sequence (whole entry)

ACE (rabbit lung) [4] = experiment: Ratio of IC50 for human A549 cells to IC50 for rabbit lung ACE; format: cell-based; settings: read-out: Ratio IC50

Compound	inhibition [1] [%]	IC50 [3] [nM]	selectivity ratio (ACE (rabbit lung) [2])	selectivity ratio (ACE (rabbit lung) [4])
CCCCc1nc(Cl)c(C(=O)N[C@H](C(=O)OC)C(C)C)n1C	55	–	–	–
CCOC(=O)[C@H](CCc1ccccc1)N[C@H]1CCc2ccccc2N(CC(=O)O)C1=O [BENAZEPRIL]	–	100	–	–
CCCCc1nc(Cl)c(C(=O)NCC(=O)OC)n1C	55	–	–	–
CCCCc1nc(Cl)c(C(=O)N[C@H](C(=O)OC)[C@H](C)CC)n1C	55	–	–	–
NCCCC[C@H](N[C@@H](CCc1ccccc1)C(=O)O)C(=O)N1CCC[C@H]1C(=O)O [LISINOPRIL ANHYDROUS]	–	318	–	–
CCCCc1nc(Cl)c(C(=O)N[C@H](C(=O)OC)[C@H](C)O)n1C	55	–	–	–
CCCCc1nc(Cl)c(C(=O)N[C@@H](Cc2ccc(O)cc2)C(=O)OC)n1C	55	–	–	–
CCCCc1nc(Cl)c(C(=O)N[C@@H](Cc2ccccc2)C(=O)OC)n1C	> 80	647	1000	1000
CCCCc1nc(Cl)c(C(=O)N[C@@H](Cc2c[nH]c3ccccc23)C(=O)O)n1C	> 80	–	–	–
CCCCc1nc(Cl)c(C(=O)N[C@@H](Cc2c[nH]c3ccccc23)C(=O)OC)n1C	> 80	531	1000	1000

More lines, main results first:

inhibition [1] [%]	IC50 [3] [nM]	Compound	selectivity ratio (ACE (rabbit lung) [2])	selectivity ratio (ACE (rabbit lung) [4])
55	–	CCCCc1nc(Cl)c(C(=O)N[C@@H](CC(C)C)C(=O)O)n1C	–	–
55	–	CCCCc1nc(Cl)c(C(=O)N[C@H](C(=O)O)[C@H](C)O)n1C	–	–
55	–	CCCCc1nc(Cl)c(C(=O)N[C@@H](C)C(=O)O)n1C	–	–
> 80	1120	CCCCc1nc(Cl)c(C(=O)N[C@H](C(=O)O)[C@H](C)CC)n1C	1000	1000
> 80	657	CCCCc1nc(Cl)c(C(=O)N[C@@H](CCSC)C(=O)O)n1C	1000	1000
55	–	CCCCc1nc(Cl)c(C(=O)N[C@@H](C)C(=O)OC)n1C	–	–
55	–	CCCCc1nc(Cl)c(C(=O)N[C@@H](CCSC)C(=O)OC)n1C	–	–
55	–	CCCCc1nc(Cl)c(C(=O)N[C@@H](CC(C)C)C(=O)OC)n1C	–	–
55	–	CCCCc1nc(Cl)c(C(=O)N[C@@H](Cc2ccc(O)cc2)C(=O)O)n1C	–	–
55	–	CCCCc1nc(Cl)c(C(=O)N[C@@H](CO)C(=O)O)n1C	–	–
55	–	CCCCc1nc(Cl)c(C(=O)N[C@H](C(=O)O)C(C)C)n1C	–	–
55	–	CCCCc1nc(Cl)c(C(=O)NCC(=O)O)n1C	–	–
55	–	CCCCc1nc(Cl)c(C(=O)N[C@@H](CO)C(=O)OC)n1C	–	–
55	100	CCCCc1nc(Cl)c(C(=O)N[C@@H](Cc2ccccc2)C(=O)O)n1C	1000	1000
